For series [1], the system named is Plasmodium falciparum. Kind of series: Antiplasmodial activity against chloroquine-sensitive Plasmodium falciparum NF54 by LDH assay. The series is classed as functional, organism-based.
Series [2] deals with Plasmodium falciparum. Briefly: Antiplasmodial activity against chloroquine-resistant Plasmodium falciparum Dd2 by LDH assay. Type of series: functional, organism-based.
The test system of the next series is CHO. Kind of series: Cytotoxicity against CHO cells assessed as reduction in cell viability by MTT assay. Type of series: cell-based. The note with it: Cricetulus griseus. A general note: Tetrazolium assays rely on reduction of a dye to a coloured formazan, in cell work by metabolically active cells.
In series [3] the test system is Leishmania donovani. Briefly: Antileishmanial activity against Leishmania donovani 1S promastigotes assessed as inhibition of parasite growth incubated for 72 hrs by resazurin dye based assay. Type of series: functional, organism-based. For orientation: Alamar Blue is a resazurin reagent that responds to reducing activity.
The subject of series [4] is Leishmania donovani. Kind of series: Antileishmanial activity against Leishmania donovani 9515 promastigotes assessed as inhibition of parasite growth incubated for 72 hrs by resazurin dye based assay. The series is classed as functional, organism-based. As to conditions: Leishmania donovani, 9515, 72 h.
A further series concerns Leishmania major. Kind of series: Antileishmanial activity against Leishmania major IR-173 promastigotes assessed as inhibition of parasite growth incubated for 72 hrs by resazurin dye based assay. The series is classed as functional, organism-based. The note with it: IR-173, 72 h.
A short description of series [5]: Selectivity index, ratio of IC50 for CHO cells to IC50 for antileishmanial activity against Leishmania donovani 9515 by resazurin dye based assay. Type of series: toxicity. As to conditions: hamster, read-out: Ratio IC50.
A short description of series [6]: Selectivity index, ratio of IC50 for CHO cells to IC50 for antileishmanial activity against Leishmania donovani 1S by resazurin dye based assay. Type of series: toxicity. As to conditions: hamster, read-out: Ratio IC50.
The next series in a line: in vitro. The note with it: hamster, CHO cells.

The term IC50 denotes the concentration that gives 50% inhibition. As to `COc1ccc2nc3cc(Cl)ccc3c(N3CCNC(C)C3)c2c1` (stereo not given), the IC50 in the series with Plasmodium falciparum [1] is 158 nM; in the series with Plasmodium falciparum [2], 384 nM; in the series with CHO it was 5600 nM; in the series with Leishmania donovani [3] it was 4160 nM; in the series with Leishmania donovani [4], 3540 nM; in the series with Leishmania major, 3470 nM. The figures for the selectivity ratio (in [5]; in series [6]; in “in vitro”) were 1.4, 1.6 and 1.6, respectively.
In the case of `COc1ccc2nc3cc(Cl)ccc3c(NCCN)c2c1`, the IC50 in the series with Plasmodium falciparum [1] is 13.9 nM; in the series on Plasmodium falciparum [2], 80.7 nM; in the series with CHO it was 1000 nM; in the series with Leishmania donovani [3], 2260 nM; in the series on Leishmania donovani [4], 2810 nM; in the series on Leishmania major, 2070 nM. For the same compound, the selectivity ratio in series [5] turned out to be 0.4; in series [6] it was 0.4; in the series “in vitro”, 0.5.
In the case of `C[C@H]1[C@H](OC(=O)CCC(=O)O)O[C@@H]2O[C@@]3(C)CC[C@H]4[C@H](C)CC[C@@H]1[C@@]24OO3` [SODIUM ARESUNATE], the IC50 was 8 nM in the series with Plasmodium falciparum [1]; more than 100000 nM in the series with CHO; 63100 nM with Leishmania donovani [3]; 80200 nM with Leishmania donovani [4]; 61200 nM in the series with Leishmania major. In addition, the results for the selectivity ratio (in series [5]; in series [6]; in the series “in vitro”) were 1.6, 1 and 1.6, respectively.
Turning to `CNCCCNc1c2ccc(Cl)cc2nc2ccc(OC)cc12`, the IC50 was 9.1 nM with Plasmodium falciparum [1]; 117 nM with Plasmodium falciparum [2]; 500 nM in the series on CHO; 3700 nM in the series on Leishmania donovani [3]; 3330 nM in the series with Leishmania donovani [4]; 1430 nM in the series on Leishmania major. For the same compound, the values for the selectivity ratio (in series [5]; in series [6]; in the series “in vitro”) were 0.1, 0.2 and 0.4, respectively.
Take `C[C@@H]1CC[C@H]2C(C)(COC(=O)c3ccco3)O[C@@H]3O[C@@]4(C)CC[C@@H]1[C@]32OO4` (stereo not given in full): the IC50 in the series on Plasmodium falciparum [1] was 9.2 nM; in the series on Plasmodium falciparum [2], 3.1 nM; in the series on CHO, more than 100000 nM; in the series on Leishmania donovani [3], more than 100000 nM; with Leishmania donovani [4], more than 100000 nM; in the series on Leishmania major, more than 100000 nM. Further, the selectivity ratio (in [5]; in the series “in vitro”) was 1 throughout.
On to `CO[C@H]1O[C@@H]2O[C@@]3(C)CC[C@H]4[C@H](C)CC[C@@H]([C@H]1C)[C@@]24OO3`, for which the IC50 in the series with CHO was more than 100000 nM; in the series with Leishmania donovani [3] it was 42300 nM; with Leishmania donovani [4], 90900 nM; in the series on Leishmania major, 22500 nM. For the same compound, the selectivity ratio in series [5] came to 2; in [6], 1; in “in vitro” it was 4.
As for `C[C@@H]1CC[C@H]2C(C)(COC(=O)c3cc4ccccc4o3)O[C@@H]3O[C@@]4(C)CC[C@@H]1[C@]32OO4` (stereo not given in full), the IC50 in the series with Plasmodium falciparum [1] was 14.6 nM; in the series on Plasmodium falciparum [2], 7.1 nM; in the series on CHO, more than 100000 nM; with Leishmania donovani [3], 13500 nM; with Leishmania donovani [4], 10300 nM; with Leishmania major it was 11200 nM. Further, the figures for the selectivity ratio (in [5]; in series [6]; in “in vitro”) were 7, more than 10 and 9, respectively.
`COc1ccc2nc3cc(Cl)ccc3c(NCCNCCO[C@H]3O[C@@H]4O[C@@]5(C)CC[C@H]6[C@H](C)CC[C@@H]([C@H]3C)[C@@]46OO5)c2c1`: the IC50 stood at 2.6 nM with Plasmodium falciparum [1]; 35.3 nM in the series with Plasmodium falciparum [2]; 1600 nM in the series on CHO; 380 nM in the series with Leishmania donovani [3]; 320 nM in the series on Leishmania donovani [4]; 290 nM with Leishmania major. The selectivity ratio in series [5] is 4; in [6], 5; in the series “in vitro” it was 6.
Take `C[C@@H]1CC[C@H]2C(C)(COC(=O)[C@H]3CCCN3C(=O)C(F)(F)F)O[C@@H]3O[C@@]4(C)CC[C@@H]1[C@]32OO4` (stereo not given in full): the IC50 with Plasmodium falciparum [1] is 7.9 nM; in the series with Plasmodium falciparum [2], 7.8 nM; in the series on CHO, more than 100000 nM; in the series on Leishmania donovani [3] it was 9290 nM; with Leishmania donovani [4] it was 37600 nM; in the series with Leishmania major it was 15600 nM. For the same compound, the selectivity ratio is 11 in series [5], 3 in series [6] and 4 in “in vitro”.
With `CC(=O)OCC1(C)O[C@@H]2O[C@@]3(C)CC[C@H]4[C@H](C)CC[C@@H]1[C@@]24OO3` (stereo not given in full), the IC50 with Plasmodium falciparum [1] is 11.2 nM; in the series with Plasmodium falciparum [2], 12.6 nM; with CHO, more than 100000 nM; in the series with Leishmania donovani [3], 85200 nM; in the series with Leishmania donovani [4] it was more than 100000 nM; with Leishmania major, 42100 nM. Besides, the selectivity ratio worked out at 1 in series [5] and 2 in “in vitro”.
`COc1ccc2nc3cc(Cl)ccc3c(N3CCN(CCO[C@H]4O[C@@H]5O[C@@]6(C)CC[C@H]7[C@H](C)CC[C@@H]([C@H]4C)[C@@]57OO6)CC3)c2c1`: the IC50 was 267 nM in the series with Plasmodium falciparum [1]; 430 nM in the series on Plasmodium falciparum [2]; more than 100000 nM with CHO; 54100 nM with Leishmania donovani [3]; 32100 nM in the series with Leishmania donovani [4]; 4800 nM in the series with Leishmania major. The results for the selectivity ratio (in series [5]; in series [6]; in the series “in vitro”) were 3, 5 and 33, respectively.
`C[C@@H]1CC[C@H]2C(C)(CO)O[C@@H]3O[C@@]4(C)CC[C@@H]1[C@]32OO4` (stereo not given in full): the IC50 in the series with Plasmodium falciparum [1] is 4.1 nM; with Plasmodium falciparum [2], 7.4 nM; in the series on CHO, more than 100000 nM; in the series with Leishmania donovani [3], more than 100000 nM; in the series with Leishmania donovani [4] it was more than 100000 nM; in the series with Leishmania major, more than 100000 nM. Besides, the selectivity ratio (in series [5]; in “in vitro”) was 1 each time.
As to `COc1ccc2nc3cc(Cl)ccc3c(NCCCN(C)CCO[C@H]3O[C@@H]4O[C@@]5(C)CC[C@H]6[C@H](C)CC[C@@H]([C@H]3C)[C@@]46OO5)c2c1`, the IC50 is 12.2 nM with Plasmodium falciparum [1]; 38.5 nM with Plasmodium falciparum [2]; 1200 nM in the series with CHO; 370 nM in the series on Leishmania donovani [3]; 170 nM in the series with Leishmania donovani [4]; 230 nM in the series on Leishmania major. Besides, the selectivity ratio in series [5] worked out at 3; in [6] it was 7; in “in vitro” it was 5.
Consider `COc1ccc2nc3cc(Cl)ccc3c(N3CCNCC3)c2c1`, for which the IC50 was determined as 1490 nM with Plasmodium falciparum [1]; 1670 nM in the series on Plasmodium falciparum [2]; 3400 nM in the series on CHO; 3260 nM in the series with Leishmania donovani [3]; 3210 nM in the series with Leishmania donovani [4]; 3520 nM with Leishmania major. The selectivity ratio in series [5] was found to be 1; in [6], 1.1; in the series “in vitro”, 1.
In the case of `C[C@@H]1CC[C@H]2C(C)(COC(=O)c3ccc([N+](=O)[O-])cc3)O[C@@H]3O[C@@]4(C)CC[C@@H]1[C@]32OO4` (stereo not given in full), the IC50 with Plasmodium falciparum [1] was 6.7 nM; in the series on Plasmodium falciparum [2], 2.6 nM; with CHO, more than 100000 nM; in the series with Leishmania donovani [3], 5150 nM; in the series with Leishmania donovani [4] it was 4260 nM; in the series on Leishmania major it was 5710 nM. Besides, the selectivity ratio in series [5] is 19; in [6], more than 24; in the series “in vitro”, 18.
As for `CC[C@H]1CN2CCc3cc(OC)c(OC)cc3[C@@H]2C[C@@H]1C[C@H]1NCCc2cc(OC)c(OC)cc21` [EMETINE], in the series on CHO, the IC50 was 290 nM.

These data come from ChEMBL document CHEMBL4699524 (Bioorg Med Chem Lett, 2020).
